pKd: −log10 of the molar value. Values belong to the molecule of their own block, whether it stands above or below them.
How the values were obtained:
[1] = test system: luciferase reporter gene (HeLa cells); assay: Luciferase activity in HeLa cells containing reporter constructs but no overexpressed hTRs; assay type: cell-based; details: highest concentration [10^-5]
Protocol: (§1) Cellular transactivation assays can be performed according to the procedure in Ribeiro R. C. et al. (1996) J. Biol. Chem. 271, 17147-17151. Briefly, HeLa cells are grown in 15 cm dishes in DME H-21, 4.5 g/L glucose with 10% newborn bovine serum, 2 mM glutamine, 50 units/ml penicillin, and 50 μg/ml streptomycin.
(§2) For transfections, cells are trypsinized, resuspended in buffer (PBS, 0.1% glucose), and mixed with a reporter gene construct and with or without the appropriate thyroid receptor (TR) expression vectors (CMV TR β1,CMV TR α1). One such reporter gene construct consists of a synthetic TR response element (DR-4) containing two copies of a direct repeat spaced by four nucleotides (AGGTCA-caggAGGTCA) cloned into the HindIII site of the pUC19 polylinker immediately upstream of a minimal (-32/+45) thymidine kinase promoter linked to luciferase coding sequences. Another reporter gene construct that can be used consists of the β-galactosidase coding sequence fused downstream of an actin promoter.
Cells in 0.5 ml of buffer (8+/-2 million cells) are electroporated using a Bio-Rad gene pulser at 0.35 kvolts and 960 microfarads. […] The light output is measured for 10 sec at room temperature with a luminometer (Analytical Luminescence Laboratory, MONOLIGHT^R 1500).

HeLa cells = assay: Toxicity in HeLa cells (change in cell morphology, or lifting off of cells from a growth surface); assay type: cell-based
hTRα [2] = target: T1, hTRα (Homo sapiens, UniProt P10827); assay: Receptor binding assay: competition with [125I]T3 for binding to recombinant hTRα
T1 construct: made in house; host or cells: E. coli
T1 sequence (P10827 1-410 isoform P10827-2): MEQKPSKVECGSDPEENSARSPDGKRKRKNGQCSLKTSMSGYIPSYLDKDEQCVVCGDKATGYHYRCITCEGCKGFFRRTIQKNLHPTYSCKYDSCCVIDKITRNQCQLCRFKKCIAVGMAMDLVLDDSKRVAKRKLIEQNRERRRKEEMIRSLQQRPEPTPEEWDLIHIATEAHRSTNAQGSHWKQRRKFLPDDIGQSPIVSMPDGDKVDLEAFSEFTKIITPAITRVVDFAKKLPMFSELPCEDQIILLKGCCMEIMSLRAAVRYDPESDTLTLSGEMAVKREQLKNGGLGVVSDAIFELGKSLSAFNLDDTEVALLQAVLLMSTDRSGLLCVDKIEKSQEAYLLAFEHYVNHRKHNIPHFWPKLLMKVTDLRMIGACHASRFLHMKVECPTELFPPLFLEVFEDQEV
Protocol: (§3) To test the ability of synthesized human thyroid receptor (hTR) ligands to bind to two subtypes of hTR, hTRα and hTRβ, the binding affinity of a TR ligand for a TR can be assayed using TRs expressed in E. coli and [^125 I ] […] The binding affinity of a ligand for its receptor is defined by a constant termed Kd and can be calculated using a curve fitting program.
(§4) The ability of [^125 I] […] In control experiments, either purified recombinant hTRα or hTRβ was incubated with [^125 I] […] To test the analogues, either purified recombinant hTRα or hTRβ was incubated with [^125 I]

[3] = test system: β-galactosidase reporter gene construct (HeLa cells); assay: β-galactosidase reporter control expression in HeLa cells; assay type: cell-based; details: 1nM T3 or Compound (I-1) 10^-6 M to 10^-5 M
From the text: as §2
Cells in 0.5 ml of buffer (8+/-2 million cells) are electroporated using a Bio-Rad gene pulser at 0.35 kvolts and 960 microfarads. […] After incubation at 37° C. for 24 hours, incubation media is discarded and the cells are detached with 1 ml of calcium/magnesium-free PBS, 1mM EDTA, prewarmed at 37° C., and transferred to 1.5 ml Eppendorf tubes. Cells are pelleted by centrifugation in a microfuge for 15 seconds at room temperature. The supernatants are aspirated and the pellets are lysed by addition of 120 μl of Tris-Cl 0.25 M pH 7.6, 0.1% Triton. […] The light output is measured for 10 sec at room temperature with a luminometer (Analytical Luminescence Laboratory, MONOLIGHT^R 1500).

hTRβ [4] = target: T2, hTRβ (Homo sapiens, UniProt P10828); assay: Cellular transcription (luciferase) assay in HeLa cells overexpressing hTRβ; assay type: cell-based; details: for activation of transcription via hTRβ (luciferase): 24 hours at 37° C., T3 10^-12 to 10^-7 M, I-3 10^-10 to 3×10^-5 M, I-1 10^-9 to 3×10^-5 M
T2 construct: expressed in transfected cells; host or cells: HeLa cells
T2 sequence (P10828 1-461): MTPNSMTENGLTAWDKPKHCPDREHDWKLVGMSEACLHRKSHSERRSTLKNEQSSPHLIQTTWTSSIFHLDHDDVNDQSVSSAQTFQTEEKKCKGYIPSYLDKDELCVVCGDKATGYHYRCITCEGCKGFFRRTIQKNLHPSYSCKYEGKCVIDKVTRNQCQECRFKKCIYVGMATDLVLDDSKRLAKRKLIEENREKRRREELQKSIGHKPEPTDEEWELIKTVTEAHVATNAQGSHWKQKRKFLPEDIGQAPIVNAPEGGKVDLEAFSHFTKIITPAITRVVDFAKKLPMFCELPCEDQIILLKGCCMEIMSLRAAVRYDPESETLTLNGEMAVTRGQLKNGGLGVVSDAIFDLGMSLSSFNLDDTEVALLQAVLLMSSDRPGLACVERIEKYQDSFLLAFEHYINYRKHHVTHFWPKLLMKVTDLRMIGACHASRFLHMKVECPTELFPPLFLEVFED
Protocol: as §1, §2
(§5) Cells in 0.5 ml of buffer (8+/-2 million cells) are electroporated using a Bio-Rad gene pulser at 0.35 kvolts and 960 microfarads. […] After incubation at 37° C. for 24 hours, incubation media is discarded and the cells are detached with 1 ml of calcium/magnesium-free PBS, 1mM EDTA, prewarmed at 37° C., and transferred to 1.5 ml Eppendorf tubes. Cells are pelleted by centrifugation in a microfuge for 15 seconds at room temperature. The supernatants are aspirated and the pellets are lysed by addition of 120 μl of Tris-Cl 0.25 M pH 7.6, 0.1% Triton. After resuspension by vortexing for 5-10 sec, the lysates are pelleted by centrifugation in a microfuge for 5 min at room temperature. One hundred μl of each Eppendorf tube lysate is added to 300 μl of 25 mM glycylglycine pH 7.8, 15 mM MgSO4, 4 mM EGTA, 15 mM potassium phosphate pH 7.8, 1 mM DTT, 2 mM ATP, and 0.2 mM Luciferine. The light output is measured for 10 sec at room temperature with a luminometer (Analytical Luminescence Laboratory, MONOLIGHT^R 1500). […]

hTRα [5] = target: T1, hTRα; assay: Cellular transcription (luciferase) assay in HeLa cells overexpressing hTRα; assay type: cell-based; details: for activation of transcription via hTRα (luciferase): 24 hours at 37° C., T3 10^-12 to 10^-7 M, I-3 10^-10 to 3×10^-5 M, I-1 10^-9 to 3×10^-5 M
Protocol: as §1, §2, §5

hTRβ [6] = target: T2, hTRβ; assay: Receptor binding assay: competition with [125I]T3 for binding to recombinant hTRβ
Protocol: as §3, §4

TRβ = details: literature / earlier patent; cited from earlier work

Structure (SMILES): CCCCN(C)C(=O)CCCCCCCCCCC(c1ccc(O)c(C(C)C)c1)c1c(C)cc(OCC(=O)O)cc1C (centres unmarked) [Compound I-1]
- luciferase activity without cotransfected TR-expression construct [1]: occurs even when a TR-expression construct is not cotransfected into HeLa cells
- concentration at which toxicity was observed (HeLa cells): 10 µM
- pKd (hTRα [2]): ~7.11
- expression of β-galactosidase [3]: not affected
- competition with T3 / antagonism, hTRβ (hTRβ [4]): still able to compete with T3
- activation of transcription via hTRβ (luciferase) (hTRβ [4]): did not appear to activate hTR-mediated transcription
- competition with T3 / antagonism, hTRα (hTRα [5]): still able to compete with T3
- activation of transcription via hTRα (luciferase) (hTRα [5]): did not appear to activate hTR-mediated transcription
- pKd (hTRβ [6]): ~6.74

- pKd (hTRα [2]): ~6.63
- pKd (hTRβ [6]): ~6.14
Structure (SMILES): CCCCN(C)C(=O)CCCCCC/C=C\CCC(c1ccc(O)c(C(C)C)c1)c1c(C)cc(OCC(=O)O)cc1C (centres unmarked) [Compound I-2]

Structure (SMILES): C=CCC(c1ccc(O)c(C(C)C)c1)c1c(C)cc(OCC(=O)O)cc1C (centres unmarked) [Compound I-3]
- pKd (hTRα [2]): ~6.86
- activation of transcription via hTRβ (luciferase) (hTRβ [4]): able to stimulate transcription and translation of the luciferase gene through both subtypes of hTR, though to a lesser degree than. T3
- activation of transcription via hTRα (luciferase) (hTRα [5]): able to stimulate transcription and translation of the luciferase gene through both subtypes of hTR, though to a lesser degree than. T3
- pKd (hTRβ [6]): ~7.44

Structure (SMILES): N[C@@H](Cc1cc(I)c(Oc2ccc(O)c(I)c2)c(I)c1)C(=O)O [Compound T3, 3,5,3'-triiodo-L-thyronine, reference compound]
- expression of β-galactosidase [3]: not affected

Structure (SMILES): Cc1cc(OCC(=O)O)cc(C)c1Cc1ccc(O)c(C(C)C)c1 [GC-1]
- affinity and TR subtype selectivity (background) (TRβ): high affinity TRP-selective agonist ligand
